# According to patent US4150135A, “Substituted 4a-phenyl-N-phenylalkyl-cis-decahydroisoquinolines” (priority 1977, dated 1979):
# Where a name gives a salt, the structure may show the parent alone. Read-outs that look alike come from different tables or passages of the source.
# Tests used:
# [1] = test system: mice (phenylquinone-induced stretching or writhing syndrome); assay: standard phenylquinone writhing test (PQW), oral analgesia in mice; assay type: in vivo, female white mice; details: for ED50: Mus musculus, po
# Procedure: A standard procedure for detecting and comparing the analgesic activity of compounds in this series for which there is good correlation with human efficacy is the standard phenylquinone writhing test (PQW) modified from Siegmund, et al., Proc. Soc. Exp. Biol. Med. 95, 729 (1957). A test compound suspended in 1% methylcellulose was given orally to fasted (17-21 hours) female white mice, 5-20 animals per dose in a double blind test. Aqueous (0.01% phenyl-p-benzoquinone) phenylquinone was injected intraperitoneally at 23 or 30 minutes later using 0.20 ml per mouse. […] The effective analgesic dose for 50% of the mice (ED 50) was calculated by the moving average method of Weil, Biometrics 8, 249 (1952).
# [2] = J. Am. Chem. Soc. 72, 712 (1950); cited from earlier work
# [3] = mouse (Table III, additional compounds), read-out: Mouse ED50 Analgesia (PQW)-Oral
# [4] = mice, phenylquinone i.p., effective analgesic dose for 50% of the mice (Table II), read-out: PQW ED50
SMILES,"ED50 [1, 4] [mg/kg]",also measured
"COc1cccc(C23CCN(C)CC2CCC(C)C3)c1 (stereo not drawn) [Example 23, N-Methyl-4a-m-methoxyphenyl-6β-methyl-cis-decahydroisoquinoline]",–,"ED50 [1, 3]: 3.5 mg/kg"
"CC(C)=CCN1CCC2(C)c3cc(O)ccc3CC1C2C.Cl (stereo not drawn) [Pentazocine HCl, reference compound]",57,–
"COc1cccc(C23CCN(Cc4ccco4)CC2CCC(C)C3)c1 (stereo not drawn) [Example 28, N-(2-Furylmethyl)-4a-m-methoxyphenyl-6β-methyl-cis-decahydroisoquinoline]",–,"ED50 [1, 3]: 61 mg/kg"
CC(=O)Oc1cccc(C23CCCCC2CN(CCc2cccs2)CC3)c1 (stereo not drawn),27,–
Oc1cccc(C23CCCCC2CN(CCc2cccs2)CC3)c1 (stereo not drawn),24,–
Oc1cccc(C23CCCCC2CN(CCc2ccccc2)CC3)c1 (stereo not drawn),21,–
Oc1cccc(C23CCCCC2CN(CCc2ccc(Cl)cc2)CC3)c1 (stereo not drawn),28,–
"COc1ccc2c3c1O[C@H]1[C@@H](O)C=C[C@H]4[C@@H](C2)N(C)CC[C@@]341 [Codeine H3 PO4, reference compound]",8,–
Oc1cccc(C23CCCCC2CN(CC2CCC2)CC3)c1 (stereo not drawn),20,–
"CC(=O)Oc1ccccc1C(=O)O [Aspirin, reference compound]",109,–
CN1CCC2(c3cccc(O)c3)CCCCC2C1 (stereo not drawn) [CH3 m-OH],2.9,–
Cc1ccc(CCN2CCC3(c4cccc(O)c4)CCCCC3C2)cc1 (stereo not drawn),9.7,–
COc1cccc(C23CCCCC2CN(CC2CC2)CC3)c1 (stereo not drawn),14,–
COc1cccc(C23CCCCC2CN(CC2CCC2)CC3)c1 (stereo not drawn),18.5,–
COc1cccc(C23CCCCC2CN(CCc2cccs2)CC3)c1 (stereo not drawn),27,–
"COc1cccc(C23CCN(CCc4ccc(C)cc4)CC2CCC(C)C3)c1 (stereo not drawn) [Example 20-G, N-(p-Tolylethyl)-4a-m-methoxyphenyl-6β-methyl-cis-decahydroisoquinoline]",–,"ED50 [1, 3]: 28 mg/kg; Mouse ED50 Analgesia (PQW)-Oral ([1]; oral, mouse (Table III, additional compounds)): 22 mg/kg"

SMILES,"ED50 [1, 4] [mg/kg]",also measured
COc1cccc(C23CCCCC2CN(CCc2ccc(F)cc2)CC3)c1 (stereo not drawn),33,–
CN1CC[C@]2(c3ccccc3)CCCC[C@@H]2C1 (relative stereo) [N-Methyl-4a-phenyl-cis-decahydroisoquinoline],–,analgesic activity [2]: low analgesic activity
"C=CCN1CC[C@]2(c3cccc(O)c3)CCCC[C@@H]2C1 (relative stereo) [CH2CHCH2 m-OH, N-Allyl-4a-(m-hydroxyphenyl)-cis-decahydroisoquinoline]",43,–
COc1cccc(C23CCCCC2CN(CCc2ccco2)CC3)c1 (stereo not drawn),25,–
Oc1cccc(C23CCCCC2CN(CC2CC2)CC3)c1 (stereo not drawn),20,–
COc1cccc(C23CCCCC2CN(CCc2ccc(N(C)C)cc2)CC3)c1 (stereo not drawn),15.1,–
"CC(C)=CCN1CC[C@]2(c3cccc(O)c3)CCCC[C@@H]2C1 (relative stereo) [CH2CHC(CH3)2 m-OH, N-(3,3-Dimethylallyl)-4a-(m-hydroxyphenyl)-cis-decahydroisoquinoline]",40,–
COc1cccc(C23CCCCC2CN(CCc2ccc(Cl)cc2)CC3)c1 (stereo not drawn),16,–
"CC1CCC2CN(CC3CCC3)CCC2(c2cccc(O)c2)C1 (stereo not drawn) [Example 22-C, N-Cyclobutylmethyl-4a-m-hydroxyphenyl-6β-methyl-cis-decahydroisoquinoline]",–,"ED50 [1, 3]: 54 mg/kg"
"CN1CC[C@]2(c3ccc(F)cc3)CCCC[C@@H]2C1 (relative stereo) [CH3 p-F, N-methyl-4a-(p-fluorophenyl)-cis-decahydroisoquinoline]",26,–
CCCCCN1CCC2(c3cccc(OC)c3)CCCCC2C1 (stereo not drawn) [C5 H11 m-OCH3],20,–
COc1cccc(C23CCCCC2CN(CCc2ccc(C)cc2)CC3)c1 (stereo not drawn),11,–
COc1cccc(C23CCCCC2CN(CCc2ccccc2)CC3)c1 (stereo not drawn),14.5,–
"CN1CC[C@]23c4c5ccc(O)c4O[C@H]2[C@@H](O)C=C[C@H]3[C@H]1C5 [Morphine H2 SO4, reference compound]",–,ED50 ([1]; read-out: PQW ED50): 1.6 mg/kg
"Oc1ccc2c3c1O[C@H]1[C@@H](O)CC[C@@]4(O)[C@@H](C2)N(CC2CCC2)CC[C@]314 [Nalbuphine HCl, reference compound]",8.4,–
"CC1CCC2CN(CCc3ccccc3)CCC2(c2cccc(O)c2)C1 (stereo not drawn) [Example 27-C, N-Phenethyl-4a-m-hydroxyphenyl-6β-methyl-cis-decahydroisoquinoline]",–,"ED50 [1, 3]: 10.8 mg/kg"
